Experimental data reported in article PMC4727773, “Design, Synthesis, and Biological Evaluation of New 2-Phenyl-4H-chromen-4-one Derivatives as Selective Cyclooxygenase-2 Inhibitors” (Scientia Pharmaceutica, 2014).

How the values were obtained:
ovine COX-1 = target: T1, ovine COX-1 (Ovis aries, UniProt P05979); assay: In vitro ovine COX-1 enzyme inhibition (chemiluminescent enzyme assay kit, Cayman); format: biochemical; settings: ovine COX-1/COX-2 assay kit; means of two determinations, deviation < 10% of the mean
T1 construct: purchased Cayman Chemical, Ann Arbor, MI, USA
T1 sequence (P05979 25-600): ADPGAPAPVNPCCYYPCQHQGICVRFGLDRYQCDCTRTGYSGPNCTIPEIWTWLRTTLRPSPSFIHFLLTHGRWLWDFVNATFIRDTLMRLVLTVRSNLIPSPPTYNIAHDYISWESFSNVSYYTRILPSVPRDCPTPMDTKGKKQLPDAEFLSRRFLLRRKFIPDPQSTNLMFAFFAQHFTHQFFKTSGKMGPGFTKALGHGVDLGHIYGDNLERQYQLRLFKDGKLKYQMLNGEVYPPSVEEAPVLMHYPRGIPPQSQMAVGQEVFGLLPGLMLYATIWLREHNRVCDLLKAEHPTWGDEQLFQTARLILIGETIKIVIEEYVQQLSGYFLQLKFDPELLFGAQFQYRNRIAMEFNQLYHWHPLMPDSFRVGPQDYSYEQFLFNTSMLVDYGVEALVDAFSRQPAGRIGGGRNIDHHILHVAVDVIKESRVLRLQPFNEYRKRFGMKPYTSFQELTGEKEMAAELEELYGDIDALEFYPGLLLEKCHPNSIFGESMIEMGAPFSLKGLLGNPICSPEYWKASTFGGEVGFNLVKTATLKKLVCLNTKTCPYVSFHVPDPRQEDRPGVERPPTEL
Protocol: (§1) The ability of the test compounds listed in Table 1 to inhibit ovine COX-1 and COX-2 (IC50 value, μM) was determined using the chemiluminescent enzyme assay kit (Cayman Chemical, Ann Arbor, MI, USA) according to our previously reported method.

ovine COX-2 = target: T2, ovine COX-2 (Ovis aries, UniProt P79208); assay: In vitro ovine COX-2 enzyme inhibition (chemiluminescent enzyme assay kit, Cayman); format: biochemical; settings: for Selectivity index (SI): In vitro COX-2 selectivity index (COX-1 IC50/COX-2 IC50); for IC50: ovine COX-1/COX-2 assay kit, means of two determinations, deviation < 10% of the mean
T2 construct: purchased Cayman Chemical, Ann Arbor, MI, USA
T2 sequence (P79208 17-603): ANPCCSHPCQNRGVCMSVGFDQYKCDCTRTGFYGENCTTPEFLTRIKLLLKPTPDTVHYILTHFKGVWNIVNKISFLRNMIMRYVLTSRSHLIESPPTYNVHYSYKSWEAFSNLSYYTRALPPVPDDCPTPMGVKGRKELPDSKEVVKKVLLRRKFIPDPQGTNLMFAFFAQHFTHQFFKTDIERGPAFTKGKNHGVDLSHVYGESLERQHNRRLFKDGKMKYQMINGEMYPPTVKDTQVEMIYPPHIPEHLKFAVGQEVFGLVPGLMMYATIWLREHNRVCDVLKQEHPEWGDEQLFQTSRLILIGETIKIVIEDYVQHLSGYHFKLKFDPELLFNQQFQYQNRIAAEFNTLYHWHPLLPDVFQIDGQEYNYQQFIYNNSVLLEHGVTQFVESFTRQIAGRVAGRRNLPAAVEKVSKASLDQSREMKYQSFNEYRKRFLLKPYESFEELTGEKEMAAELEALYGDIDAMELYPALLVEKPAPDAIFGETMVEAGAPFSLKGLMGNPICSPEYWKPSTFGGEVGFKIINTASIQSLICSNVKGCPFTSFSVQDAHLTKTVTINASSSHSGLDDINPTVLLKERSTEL
Protocol: as §1

| melting point | IC50 (ovine COX-1) | Selectivity index (SI) (ovine COX-2) | IC50 (ovine COX-2) | Structure (SMILES) |
| --- | --- | --- | --- | --- |
| 92 to 93 °C | 12.7 µM | 126.5 | 0.1 µM | COc1c(-c2ccc(S(C)(=O)=O)cc2)oc2ccccc2c1=O [Compound 5a, 3-Methoxy-2-[4-(methylsulfonyl)phenyl]-4H-chromen-4-one] |
| 137 to 138 °C | 13.4 µM | 149.1 | 0.09 µM | CCOc1c(-c2ccc(S(C)(=O)=O)cc2)oc2ccccc2c1=O [Compound 5b, 3-Ethoxy-2-[4-(methylsulfonyl)phenyl]-4H-chromen-4-one] |
| 116 to 118 °C | 13.8 µM | 173.1 | 0.08 µM | C=CCOc1c(-c2ccc(S(C)(=O)=O)cc2)oc2ccccc2c1=O [Compound 5c, 3-(Allyloxy)-2-[4-(methylsulfonyl)phenyl]-4H-chromen-4-one] |
| 140 to 142 °C | 20.1 µM | 287.1 | 0.07 µM | CS(=O)(=O)c1ccc(-c2oc3ccccc3c(=O)c2OCc2ccccc2)cc1 [Compound 5d, 3-(Benzyloxy)-2-[4-(methylsulfonyl)phenyl]-4H-chromen-4-one] |

Continued, compound first:

| Structure (SMILES) | melting point | IC50 (ovine COX-1) | Selectivity index (SI) (ovine COX-2) | IC50 (ovine COX-2) |
| --- | --- | --- | --- | --- |
| CS(=O)(=O)c1ccc(-c2cc(=O)c3ccccc3o2)cc1 [Compound 3, 2-[4-(Methylsulfonyl)phenyl]-4H-chromen-4-one] | 187 °C | 10.8 µM | 98.2 | 0.11 µM |
| CS(=O)(=O)c1ccc(-c2oc3ccccc3c(=O)c2O)cc1 [Compound 4, 3-Hydroxy-2-[4-(methylsulfonyl)phenyl]-4H-chromen-4-one] | 198 to 199 °C | 9.79 µM | 75.3 | 0.13 µM |
| CC(=O)Oc1c(-c2ccc(S(C)(=O)=O)cc2)oc2ccccc2c1=O [Compound 6, 2-[4-(Methylsulfonyl)phenyl]-4-oxo-4H-chromen-3-yl acetate] | 175 °C | 15.6 µM | 195.6 | 0.08 µM |
